The test system of series [1] is green peach aphid (Myzus persicae). The series can be described thus: Myzus test (MYZUPE spray treatment), Use Example 4. It counts as in vivo. To be noted: 144 h, read-out: activity in %. Here is the method:
Solvents: 78 parts by weight of acetone • • 1.5 parts by weight of dimethylformamide
Emulsifier: 0.5 part by weight of alkylaryl polyglycol ether
An appropriate preparation of active compound is prepared by mixing 1 part by weight of active compound with the stated amounts of solvents and emulsifier and diluting the concentrate with emulsifier-containing water to the desired concentration.
Leaf discs of Chinese cabbage (Brassica pekinensis) infested by all stages of the green peach aphid (Myzus persicae) are sprayed with a preparation of active compound at the desired concentration.
After 6 days, the activity in % is ascertained. Here, 100% means that all of the aphids have been killed; 0% means that no aphids have been killed.

The test system of series [2] is larvae of the mustard beetle (Phaedon cochleariae). The series can be described thus: Phaedon test (PHAECO spray treatment). To be noted: 168 h, read-out: activity in %. Type of series: in vivo. In outline:
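Mortality of mustard beetle larvae, expressed as percent killed (100% all, 0% none), assessed 7 days after spraying. Spray liquor made from compound in acetone plus dimethylformamide with alkylaryl polyglycol ether, diluted in emulsifier-containing water to the desired concentration.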

The nature of series [3]: log P determination by HPLC on reversed-phase columns (EEC Directive 79/831 Annex V.A8). It counts as physicochemical. To be noted: pH 2.7. The essentials: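 Calibration used unbranched alkan-2-ones of 3 to 16 carbons with known log P, values interpolated linearly from retention times between neighbouring standards. Acidic-range LC-MS run at pH 2.7, eluents aqueous and acetonitrile formic acid 0.1%, linear gradient 10% to 95% acetonitrile.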

Series [4] concerns caterpillars of the armyworm (Spodoptera frugiperda). The experiment in a line: Spodoptera frugiperda test (SPODFR spray treatment). To be noted: 168 h, read-out: activity in %. Type of series: in vivo. The essentials:
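Percent caterpillar mortality read 7 days after infestation (0% none killed, 100% all killed). Treatment was a spray of the acetone/DMF/emulsifier formulation, water-diluted to test concentration, onto Zea mays leaf discs, allowed to dry before larvae were added.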

Where [5] appears, read: reversed-phase C18 HPLC column, HPLC on reversed-phase columns (C 18), EEC Directive 79/831 Annex V.A8, read-out: logP.

Read-outs that look alike come from different tables or passages of the source.

Take `Cc1cc(Cl)cc(C(=O)NC(C)C)c1NC(=O)c1cc(Cn2ncc(C(F)(F)C(F)(F)F)n2)nn1-c1ncccc1Cl` [Example 361]: the pest or weed control at 100 g/ha in series [1] (100 g/ha, after 6 days) was 80%; in series [2] (100 g/ha, after 7 days), 100%; in series [4] (100 g/ha, after 7 days), 100%. The same compound displayed a chromatographic logP in series [3] of 3.89.
Turning to `CNC(=O)c1cc(I)cc(C)c1NC(=O)c1cc(Cn2cc(C(F)(F)C(F)(F)F)nn2)nn1-c1ncccc1Cl` [Example 308], the pest or weed control at 100 g/ha in series [1] (100 g/ha, after 6 days) was 100%; in series [2] (100 g/ha, after 7 days), 100%; in series [4] (100 g/ha, after 7 days) it was 100%. Also, in series [3], the chromatographic logP was determined as 3.23.
Turning to `CSC[C@H](C)NC(=O)c1cc(I)cc(C)c1NC(=O)c1cc(Cn2ncc(C(F)(F)F)n2)nn1-c1ncccc1Cl` [Example 166], the pest or weed control at 100 g/ha in series [1] (100 g/ha, after 6 days) came out at 100%; in series [2] (100 g/ha, after 7 days), 100%; in series [4] (100 g/ha, after 7 days) it was 100%. This compound also had a chromatographic logP in series [3] of 3.98.
For `CNC(=O)c1cc(Cl)cc(C)c1NC(=O)c1cc(Cn2ncc(C(F)(F)C(F)(F)F)n2)nn1-c1ncccc1Cl` [Example 352], the pest or weed control at 100 g/ha in series [1] (100 g/ha, after 6 days) worked out at 80%; in series [2] (100 g/ha, after 7 days) it was 100%; in series [4] (100 g/ha, after 7 days), 100%. The chromatographic logP in series [3] is 3.4.
On to `CNC(=O)c1cc(I)cc(C)c1NC(=O)c1cc(Cn2ncc(C(F)(F)F)n2)nn1-c1ncccc1Cl` [Example 157], for which the pest or weed control at 100 g/ha in series [1] (100 g/ha, after 6 days) came out at 100%; in series [2] (100 g/ha, after 7 days), 100%; in series [4] (100 g/ha, after 7 days) it was 100%. The chromatographic logP in series [3] is 3.26.
On to `Cc1cc(I)cc(C(N)=O)c1NC(=O)c1cc(Cn2cc(C(F)(F)C(F)(F)C(F)(F)F)nn2)nn1-c1ncccc1Cl` [Example 332], for which the pest or weed control at 100 g/ha in series [1], in series [2] and in series [4] was 100% throughout. The chromatographic logP in series [3] (HPLC on reversed-phase columns (C 18), EEC Directive 79/831 Annex V.A8, read-out: logP) is 3.35.
Consider `CSC[C@H](C)NC(=O)c1cc(Cl)cc(C)c1NC(=O)c1cc(Cn2ncc(C(F)(C(F)(F)F)C(F)(F)F)n2)nn1-c1ncccc1Cl` [Example 262], for which the pest or weed control at 100 g/ha in series [1] (100 g/ha, after 6 days) was found to be 80%; in series [2] (100 g/ha, after 7 days), 100%; in series [4] (100 g/ha, after 7 days) it was 100%. The chromatographic logP in series [3] (setting [5]) worked out at 4.45.
Turning to `CNC(=O)c1cc(C#N)cc(C)c1NC(=O)c1cc(Cn2ncc(C(F)(F)C(F)(F)F)n2)nn1-c1ncccc1Cl` [Example 365], the pest or weed control at 100 g/ha in series [1] (100 g/ha, after 6 days) was 100%; in series [2] (100 g/ha, after 7 days), 100%; in series [4] (100 g/ha, after 7 days) it was 100%. Also, in series [3], the chromatographic logP worked out at 3.04.
Regarding `CNC(=O)c1cc(Cl)cc(C)c1NC(=O)c1cc(Cn2ncc(C3CC3)n2)nn1-c1ncccc1Cl` [Example 21], the pest or weed control at 100 g/ha is 100% in series [1] (100 g/ha, after 6 days); 100% in series [2] (100 g/ha, after 7 days); 100% in series [4] (100 g/ha, after 7 days). In addition, the chromatographic logP in series [3] came to 2.85.
As to `Cc1cc(I)cc(C(=O)NC(C)(C)C)c1NC(=O)c1cc(Cn2cc(C(F)(F)C(F)(F)F)nn2)nn1-c1ncccc1Cl` [Example 313], the pest or weed control at 100 g/ha is 100% in series [1] (100 g/ha, after 6 days); 100% in series [2] (100 g/ha, after 7 days); 100% in series [4] (100 g/ha, after 7 days). Further, the chromatographic logP in series [3] was 4.09.
In the case of `Cc1cc(C#N)cc(C(=O)NC2CCC2)c1NC(=O)c1cc(Cn2ncc(C(F)(F)F)n2)nn1-c1ncccc1Cl` [Example 131], the pest or weed control at 100 g/ha in series [1] (100 g/ha, after 6 days) turned out to be 90%; in series [2] (100 g/ha, after 7 days) it was 100%; in series [4] (100 g/ha, after 7 days), 100%. Further, in series [3], the chromatographic logP is 3.23.
`Cc1cc(I)cc(C(=O)NC(C)C2CC2)c1NC(=O)c1cc(Cn2cc(C(F)(F)C(F)(F)F)nn2)nn1-c1ncccc1Cl` (centres unmarked) [Example 309]: the pest or weed control at 100 g/ha in series [1] (100 g/ha, after 6 days) worked out at 80%; in series [2] (100 g/ha, after 7 days), 100%; in series [4] (100 g/ha, after 7 days), 100%. This compound also yielded a chromatographic logP in series [3] of 4.03.
For the compound `CSC[C@H](C)NC(=O)c1cc(C#N)cc(C)c1NC(=O)c1cc(Cn2cc(C(F)(C(F)(F)F)C(F)(F)F)nn2)nn1-c1ncccc1Cl` [Example 222], the pest or weed control at 100 g/ha amounted to 100% in series [1] (100 g/ha, after 6 days); 100% in series [2] (100 g/ha, after 7 days); 100% in series [4] (100 g/ha, after 7 days). In series [3] (setting [5]), the chromatographic logP came out at 3.63.
Turning to `Cc1cc(I)cc(C(N)=O)c1NC(=O)c1cc(Cn2nc(C(F)(F)F)c(C(F)(F)F)n2)nn1-c1ncccc1Cl` [Example 402], the pest or weed control at 100 g/ha turned out to be 80% in series [1] (100 g/ha, after 6 days); 100% in series [2] (100 g/ha, after 7 days); 100% in series [4] (100 g/ha, after 7 days). In series [3], this compound showed a chromatographic logP of 3.67.

(Values after patent publication US8536202B2, “Triazole-substituted anthranilamides as pesticides” (Bayer Cropscience AG, priority 2010, dated 2013).)
